Columns and labels:
cotton [1] = assay: Test B preemergence/postemergence greenhouse plant response rating 0 to 10; format: in vivo, Gossypium hirsutum; settings: 0 to 10 scale
Summary of the method: (§1)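 Test chemicals, dissolved in a non-phytotoxic solvent, were applied to soil at planting and, at the same time, over foliage of seedlings at the one to four leaf stage.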

soybean = assay: Test C preemergence/postemergence greenhouse plant response rating 0 to 100; format: in vivo, Glycine max; settings: POSTEMERGENCE; for Plant response rating, Soybean: 0 to 100 scale
Summary of the method: (§2)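 Compounds in non-phytotoxic solvent applied preemergence to sandy loam one day after planting, postemergence at the 1–4 leaf stage, or to ~2.5 cm floodwater over silt loam.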

rape = assay: Test B preemergence/postemergence greenhouse plant response rating 0 to 10; format: in vivo, Brassica napus; settings: 0 to 10 scale
Summary of the method: as §1

barley = assay: Test C preemergence/postemergence greenhouse plant response rating 0 to 100; format: in vivo, Hordeum vulgare; settings: POSTEMERGENCE; for Plant response rating Barley Igri: 0 to 100 scale
Summary of the method: as §2

cotton [2] = assay: as above; format: in vivo, Gossypium hirsutum; settings: POSTEMERGENCE; for Plant response rating, Cotton: 0 to 100 scale
Summary of the method: as §2

giant foxtail [3] = assay: Test B preemergence/postemergence greenhouse plant response rating 0 to 10; format: in vivo, Setaria faberii; settings: 0 to 10 scale
Summary of the method: as §1

umbrella sedge = assay: Test C flood test plant response rating 0 to 100; format: in vivo, Cyperus difformis; settings: for Plant response rating (0 to 100), Umbrella sedge: under POSTEMERGENCE head (flood test species); for Plant response rating Umbrella sedge: flood test species listed under POSTEMERGENCE, 0 to 100 scale
Summary of the method: as §2

crabgrass = assay: Test B preemergence/postemergence greenhouse plant response rating 0 to 10; format: in vivo, Digitaria spp.; settings: 0 to 10 scale
Summary of the method: as §1

morningglory = assay: as above; format: in vivo, Ipomoea hederacea; settings: 0 to 10 scale
Summary of the method: as §1

chickweed = assay: Test C preemergence/postemergence greenhouse plant response rating 0 to 100; format: in vivo, Stellaria media; settings: POSTEMERGENCE; for Plant response rating, Chickweed: 0 to 100 scale
Summary of the method: as §2

cocklebur = assay: Test B preemergence/postemergence greenhouse plant response rating 0 to 10; format: in vivo, Xanthium pensylvanicum; settings: 0 to 10 scale
Summary of the method: as §1

duck salad = assay: Test C flood test plant response rating 0 to 100; format: in vivo, Heteranthera limosa; settings: for Plant response rating (0 to 100), Duck salad: under POSTEMERGENCE head (flood test species); for Plant response rating Duck salad: flood test species listed under POSTEMERGENCE, 0 to 100 scale
Summary of the method: as §2

giant foxtail [4] = assay: Test C preemergence/postemergence greenhouse plant response rating 0 to 100; format: in vivo, Setaria faberii; settings: POSTEMERGENCE; for Plant response rating, Giant foxtail: 0 to 100 scale
Summary of the method: as §2

velvetleaf = assay: as above; format: in vivo, Abutilon theophrasti; settings: POSTEMERGENCE; for Plant response rating, Velvetleaf: 0 to 100 scale
Summary of the method: as §2

pigweed = assay: as above; format: in vivo, Amaranthusretroflexus; settings: POSTEMERGENCE; for Plant response rating Pigweed: 0 to 100 scale
Summary of the method: as §2

cheatgrass = assay: Test B preemergence/postemergence greenhouse plant response rating 0 to 10; format: in vivo, Bromus secalinus; settings: 0 to 10 scale
Summary of the method: as §1

bedstraw = assay: as above; format: in vivo, Galium aparine; settings: 0 to 10 scale
Summary of the method: as §1

lambsquarters = assay: Test C preemergence/postemergence greenhouse plant response rating 0 to 100; format: in vivo, Chenopodium album; settings: POSTEMERGENCE; for Plant response rating Lambsquarters: 0 to 100 scale
Summary of the method: as §2

CCOC(=O)COc1cc(-c2nn3c(c2Cl)CCCC3)c(F)cc1Cl [Compound 42]
Plant response rating, Cotton (cotton [1]; POSTEMERGENCE, Rate 50 g/ha): 10
Plant response rating, Cotton (cotton [1]; POSTEMERGENCE, Rate 200 g/ha): 10
Plant response rating, Cotton (cotton [1]; PREEMERGENCE, Rate 50 g/ha): 0
Plant response rating, Cotton (cotton [1]; Rate 200 g/ha, PREEMERGENCE): 0
Plant response rating, Soybean (soybean; 62 g/ha): 60
Plant response rating, Soybean (soybean; 125 g/ha): 80
Plant response rating (0 to 100), Soybean (soybean; Rate 16 g/ha): 20
Plant response rating (0 to 100), Soybean (soybean; Rate 31 g/ha): 40
Plant response rating, Rape (rape; POSTEMERGENCE, Rate 50 g/ha): 9
Plant response rating, Rape (rape; PREEMERGENCE, Rate 50 g/ha): 2
Plant response rating, Rape (rape; Rate 200 g/ha, POSTEMERGENCE): 10
Plant response rating, Rape (rape; Rate 200 g/ha, PREEMERGENCE): 3
Plant response rating Barley Igri (barley; 62 g/ha): 30
Plant response rating Barley Igri (barley; 125 g/ha): 40
Plant response rating (0 to 100), Barley Igri (barley; Rate 16 g/ha): 20
Plant response rating (0 to 100), Barley Igri (barley; Rate 31 g/ha): 30
Plant response rating, Cotton (cotton [2]; 62 g/ha): 100
Plant response rating, Cotton (cotton [2]; 125 g/ha): 100
Plant response rating (0 to 100), Cotton (cotton [2]; Rate 16 g/ha): 100
Plant response rating (0 to 100), Cotton (cotton [2]; Rate 31 g/ha): 100
Plant response rating, Giant foxtail (giant foxtail [3]; POSTEMERGENCE, Rate 50 g/ha): 3
Plant response rating, Giant foxtail (giant foxtail [3]; PREEMERGENCE, Rate 50 g/ha): 0
Plant response rating, Giant foxtail (giant foxtail [3]; Rate 200 g/ha, POSTEMERGENCE): 4
Plant response rating, Giant foxtail (giant foxtail [3]; Rate 200 g/ha, PREEMERGENCE): 0
Plant response rating (0 to 100), Umbrella sedge (umbrella sedge; Rate 16 g/ha): 0
Plant response rating (0 to 100), Umbrella sedge (umbrella sedge; Rate 31 g/ha): 10
Plant response rating Umbrella sedge (umbrella sedge; 62 g/ha): 70
Plant response rating Umbrella sedge (umbrella sedge; 125 g/ha): 90
Plant response rating, Crabgrass (crabgrass; POSTEMERGENCE, Rate 50 g/ha): 2
Plant response rating, Crabgrass (crabgrass; POSTEMERGENCE, Rate 200 g/ha): 3
Plant response rating, Crabgrass (crabgrass; PREEMERGENCE, Rate 50 g/ha): 0
Plant response rating, Crabgrass (crabgrass; Rate 200 g/ha, PREEMERGENCE): 0
Plant response rating, Morningglory (morningglory; POSTEMERGENCE, Rate 50 g/ha): 9
Plant response rating, Morningglory (morningglory; PREEMERGENCE, Rate 50 g/ha): 0
Plant response rating, Morningglory (morningglory; Rate 200 g/ha, POSTEMERGENCE): 10
Plant response rating, Morningglory (morningglory; Rate 200 g/ha, PREEMERGENCE): 3
Plant response rating, Chickweed (chickweed; 62 g/ha): 50
Plant response rating, Chickweed (chickweed; 125 g/ha): 60
Plant response rating (0 to 100), Chickweed (chickweed; Rate 16 g/ha): 20
Plant response rating (0 to 100), Chickweed (chickweed; Rate 31 g/ha): 40
Plant response rating, Cocklebur (cocklebur; POSTEMERGENCE, Rate 50 g/ha): 10
Plant response rating, Cocklebur (cocklebur; POSTEMERGENCE, Rate 200 g/ha): 10
Plant response rating, Cocklebur (cocklebur; PREEMERGENCE, Rate 50 g/ha): 0
Plant response rating, Cocklebur (cocklebur; Rate 200 g/ha, PREEMERGENCE): 0
Plant response rating (0 to 100), Duck salad (duck salad; Rate 16 g/ha): 0
Plant response rating (0 to 100), Duck salad (duck salad; Rate 31 g/ha): 0
Plant response rating Duck salad (duck salad; 62 g/ha): 0
Plant response rating Duck salad (duck salad; 125 g/ha): 20
Plant response rating, Giant foxtail (giant foxtail [4]; 62 g/ha): 50
Plant response rating, Giant foxtail (giant foxtail [4]; 125 g/ha): 70
Plant response rating (0 to 100), Giant foxtail (giant foxtail [4]; Rate 16 g/ha): 30
Plant response rating (0 to 100), Giant foxtail (giant foxtail [4]; Rate 31 g/ha): 30
Plant response rating, Velvetleaf (velvetleaf; 62 g/ha): 100
Plant response rating, Velvetleaf (velvetleaf; 125 g/ha): 100
Plant response rating (0 to 100), Velvetleaf (velvetleaf; Rate 16 g/ha): 100
Plant response rating (0 to 100), Velvetleaf (velvetleaf; Rate 31 g/ha): 100
Plant response rating Pigweed (pigweed; 62 g/ha): 90
Plant response rating Pigweed (pigweed; 125 g/ha): 90
Plant response rating (0 to 100), Pigweed (pigweed; Rate 16 g/ha): 90
Plant response rating (0 to 100), Pigweed (pigweed; Rate 31 g/ha): 90
Plant response rating, Cheatgrass (cheatgrass; POSTEMERGENCE, Rate 50 g/ha): 1
Plant response rating, Cheatgrass (cheatgrass; POSTEMERGENCE, Rate 200 g/ha): 3
Plant response rating, Cheatgrass (cheatgrass; PREEMERGENCE, Rate 50 g/ha): 0
Plant response rating, Cheatgrass (cheatgrass; Rate 200 g/ha, PREEMERGENCE): 0
Plant response rating, Bedstraw (bedstraw; POSTEMERGENCE, Rate 50 g/ha): 10
Plant response rating, Bedstraw (bedstraw; POSTEMERGENCE, Rate 200 g/ha): 9
Plant response rating, Bedstraw (bedstraw; PREEMERGENCE, Rate 50 g/ha): 7
Plant response rating, Bedstraw (bedstraw; Rate 200 g/ha, PREEMERGENCE): 9
Plant response rating Lambsquarters (lambsquarters; 62 g/ha): 100
Plant response rating Lambsquarters (lambsquarters; 125 g/ha): 100
Plant response rating (0 to 100), Lambsquarters (lambsquarters; Rate 16 g/ha): 100
Plant response rating (0 to 100), Lambsquarters (lambsquarters; Rate 31 g/ha): 100
